Experiments:
[1] = Storage stability at 55° C. of dried lot 14 solid with added water or ethanol (Example 3, Table 3); assay type: physicochemical; details: 55° C. for a short period such as 24 hours
Excerpt: Three values are given in the tables for each azadirachtin level: The amount (in grams) of azadirachtin A is given before the slash. The amount of azadirachtin B (in grams) is given after the slash. The total azadirachtin amount is given in parentheses. Ka, Kb, and Kt refer to the first order decomposition rate constants (with units of 1/day) for azadirachtin A, azadirachtin B, and total azadirachtin, respectively.
Dry solid azadirachtin was obtained by drying a solid azadirachtin sample from Lot 14 (014) in an oven at 55° C. for 24 hours in an unsealed vessel until the volatile content of the solid was less than 0.5%. The dried sample was then split into 6 subsamples. One dry subsample (014D) was used without further treatment. A second subsample (014W1) received 1% by weight of H2 O. A third subsample (014W4) received 4% by weight H2 O. Subsamples 4, 5 and 6 received 1, 3, and 5% by weight of ethanol, respectively and were designated 014E1, 014E3, and 014E5. The subsamples were placed in multiple tightly sealed vials at 55° C. Individual vials were removed periodically to assay for azadirachtin.

[2] = test system: various insect, mite, nematode, etc. orders; details: cited from earlier work

In the case of `C/C=C(\C)C(=O)O[C@H]1C[C@@H](OC(C)=O)[C@@]2(C(=O)OC)CO[C@H]3[C@@H](O)[C@@](C)([C@]45O[C@@]4(C)[C@H]4C[C@@H]5O[C@@H]5OC=C[C@@]54O)[C@H]4[C@]1(CO[C@]4(O)C(=O)OC)[C@@H]32` [azadirachtin], the “effect of heating upon azadirachtin stability” value [1] is listed as “little or no effect upon azadirachtin stability” and the “biological activity (in words)” value [2] is listed as “feeding inhibition and growth disruption”.
